# Results taken from patent US20040228820A1, “Compositions comprising an amidine and an alkane polyol” (The Procter & Gamble Company, priority 2003, published 2004).
# Assay: Stabilisation of amidines in aqueous solution by alkane polyols
# From the text: The compositions of the present invention also comprise an alkane polyol having an N-octanol/water partition coefficient (ClogP) of from +0.2 to +1.55. […] The ClogP values of these materials indicate their hydrophilic/lipophilic balance. Alkane polyols having a ClogP value of between +0.2 and +1.55 are slightly lipophilic, enabling them to interact with the amidines. However, the alkane polyols herein maintain a high enough solubility in water due to the presence of the hydroxy moieties to allow them to maintain the amidine in solution.
row,Stabilises Amidines?,Structure (SMILES)
1,No,"CC(O)CCC(C)O (centres unmarked) [2,5-hexanediol]"
2,No,"OCCCCCCCCCCO [1,10-decanediol]"
3,Yes,"OCCCCCCCCCO [1,9-nonanediol]"

# Continued, compound first:
row,Structure (SMILES),Stabilises Amidines?
1,"CCCCCCC(O)CO (centres unmarked) [1,2-octanediol]",Yes
2,"CCCCCC(O)CO (centres unmarked) [1,2-heptanediol]",Yes
3,"OCCCCCCCO [1,7-heptanediol]",Yes
4,"CCCCC(O)CO (centres unmarked) [1,2-hexanediol]",Yes
5,"CCCC(O)CO (centres unmarked) [1,2 Pentanediol]",No
